#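 Tested at 5 concentrations; 48 h exposure; 96-well plates; endpoints linearly interpolated, else capped at highest concentration. TGI denotes the concentration required for complete inhibition of growth.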
# Experiments:
# Experiment in all cases: growth of human tumour cells (NCI), 48 h
# BT-549 breast = tested on: BT-549 breast
# HT29 colon = tested on: HT29 colon
# LOX IMVI melanoma = tested on: LOX IMVI melanoma
# HCC-2998 colon = tested on: HCC-2998 colon
# IGROV1 ovarian = tested on: IGROV1 ovarian
# CCRF-CEM leukemia = tested on: CCRF-CEM leukemia
# OVCAR-8 ovarian = tested on: OVCAR-8 ovarian
# NCI/ADR-RES ovarian = tested on: NCI/ADR-RES ovarian
# A498 renal = tested on: A498 renal
# NCI-H522 lung = tested on: NCI-H522 lung
# MALME-3M melanoma = tested on: MALME-3M melanoma
# ACHN renal = tested on: ACHN renal
SMILES,TGI (BT-549 breast) [µM],TGI (HT29 colon) [µM],TGI (LOX IMVI melanoma) [µM],TGI (HCC-2998 colon) [µM],TGI (IGROV1 ovarian) [µM],TGI (CCRF-CEM leukemia) [µM],TGI (OVCAR-8 ovarian) [µM],TGI (NCI/ADR-RES ovarian) [µM],TGI (A498 renal) [µM],TGI (NCI-H522 lung) [µM],TGI (MALME-3M melanoma) [µM],TGI (ACHN renal) [µM]
CCN1CCC(O)(c2ccc([N+](=O)[O-])cc2)C(C(=O)c2ccc([N+](=O)[O-])cc2)C1 (centres undefined),30.8,> 100,38.6,32.8,35.5,> 100,81.9,> 100,46.2,15.1,48.6,32
CCOc1cnc(C(O)(c2ccccc2)c2ccccc2)o1,> 100,> 100,> 100,> 100,> 100,> 100,> 100,> 100,> 100,> 100,> 100,> 100
CCCCCCCCCCCCCCCCCCNc1ccn(C2OC(COP(=O)(O)OCC3OC(n4ccc(N)nc4=O)C(O)C3O)C(O)C2O)c(=O)n1 (centres undefined),> 87.9,> 100,49.4,> 100,> 100,> 100,> 62.2,> 100,> 100,> 100,> 100,> 100
COc1ccc(OC)c2sc(N3C(=O)/C(=C/c4cccc(Oc5ccccc5)c4)N=C3c3ccccc3)nc12,> 100,> 100,> 100,> 100,> 100,> 100,> 100,> 100,> 100,> 100,> 100,> 100
CCN(CC)CCNc1ccc2ncn3c4ccc(O)cc4c(=O)c1c23,24.9,7.06,3.15,18.1,14.3,16.5,9.55,16.1,13.7,15.7,15.8,2.89
S=C1Cc2c(-c3ccccc3)cc(-c3cccc(Cl)c3)nc2-c2ccccc2N1,19.5,11.5,13.7,18.7,4.56,30.5,4.39,8.32,10.4,13.1,> 24.5,3.89
C=C1CC[C@@H](CCC2CCC3(OC2)O[C@]2(O)CC[C@@]3(C)OC2(C)C)C(C)(C)[C@H]1C/C=C1\CCOC1=O (some centres undefined),49.1,31.1,20,> 53.3,> 100,83,> 100,> 100,34.9,> 58.9,55.2,> 100
COC(=O)c1cc2c(cc1Cl)Sc1nnc(Nc3ccccc3)n1S2(=O)=O,14.5,5.17,93.6,4.59,2.68,6.13,> 33.1,27.4,12.9,3.26,11.6,4.16
N#Cc1ccccc1OCCOc1ccccc1C#N,> 100,> 100,> 100,> 100,> 100,> 100,> 100,> 100,> 100,> 100,> 100,> 100
Cc1ccc(OCC2OC(n3cnc4c(Cl)nc(Nc5cc(Cl)cc(Cl)c5)nc43)CC2Oc2ccc(C)cc2)cc1 (centres undefined),> 100,> 100,> 100,> 100,> 100,> 100,> 100,> 100,> 100,> 100,> 100,> 100
N#Cc1sc2nc3ccccc3n2c1N,> 100,> 100,> 100,> 100,> 100,> 100,> 100,> 100,> 100,> 100,> 100,> 100
CSC(=O)/C=C1\SS/C(=C\C(=O)SC)S1,3.26,7.03,3.09,3.33,11.6,> 100,11.7,8.71,21.5,6.34,4.6,10.2

# Reference: PubChem BioAssay (NCI)
